{
  "source": "patent US20200009176A1",
  "about": "“TREATMENT OF LEUKEMIA VIA THE ADMINISTRATION OF DOT1L INHIBITOR PINOMETOSTAT” (Epizyme, Inc., priority 2014, published 2020)",
  "key": {"DOT1L": {"target": "DOT1L (Homo sapiens, UniProt Q8TEK3)", "sequence (Q8TEK3 whole entry)": "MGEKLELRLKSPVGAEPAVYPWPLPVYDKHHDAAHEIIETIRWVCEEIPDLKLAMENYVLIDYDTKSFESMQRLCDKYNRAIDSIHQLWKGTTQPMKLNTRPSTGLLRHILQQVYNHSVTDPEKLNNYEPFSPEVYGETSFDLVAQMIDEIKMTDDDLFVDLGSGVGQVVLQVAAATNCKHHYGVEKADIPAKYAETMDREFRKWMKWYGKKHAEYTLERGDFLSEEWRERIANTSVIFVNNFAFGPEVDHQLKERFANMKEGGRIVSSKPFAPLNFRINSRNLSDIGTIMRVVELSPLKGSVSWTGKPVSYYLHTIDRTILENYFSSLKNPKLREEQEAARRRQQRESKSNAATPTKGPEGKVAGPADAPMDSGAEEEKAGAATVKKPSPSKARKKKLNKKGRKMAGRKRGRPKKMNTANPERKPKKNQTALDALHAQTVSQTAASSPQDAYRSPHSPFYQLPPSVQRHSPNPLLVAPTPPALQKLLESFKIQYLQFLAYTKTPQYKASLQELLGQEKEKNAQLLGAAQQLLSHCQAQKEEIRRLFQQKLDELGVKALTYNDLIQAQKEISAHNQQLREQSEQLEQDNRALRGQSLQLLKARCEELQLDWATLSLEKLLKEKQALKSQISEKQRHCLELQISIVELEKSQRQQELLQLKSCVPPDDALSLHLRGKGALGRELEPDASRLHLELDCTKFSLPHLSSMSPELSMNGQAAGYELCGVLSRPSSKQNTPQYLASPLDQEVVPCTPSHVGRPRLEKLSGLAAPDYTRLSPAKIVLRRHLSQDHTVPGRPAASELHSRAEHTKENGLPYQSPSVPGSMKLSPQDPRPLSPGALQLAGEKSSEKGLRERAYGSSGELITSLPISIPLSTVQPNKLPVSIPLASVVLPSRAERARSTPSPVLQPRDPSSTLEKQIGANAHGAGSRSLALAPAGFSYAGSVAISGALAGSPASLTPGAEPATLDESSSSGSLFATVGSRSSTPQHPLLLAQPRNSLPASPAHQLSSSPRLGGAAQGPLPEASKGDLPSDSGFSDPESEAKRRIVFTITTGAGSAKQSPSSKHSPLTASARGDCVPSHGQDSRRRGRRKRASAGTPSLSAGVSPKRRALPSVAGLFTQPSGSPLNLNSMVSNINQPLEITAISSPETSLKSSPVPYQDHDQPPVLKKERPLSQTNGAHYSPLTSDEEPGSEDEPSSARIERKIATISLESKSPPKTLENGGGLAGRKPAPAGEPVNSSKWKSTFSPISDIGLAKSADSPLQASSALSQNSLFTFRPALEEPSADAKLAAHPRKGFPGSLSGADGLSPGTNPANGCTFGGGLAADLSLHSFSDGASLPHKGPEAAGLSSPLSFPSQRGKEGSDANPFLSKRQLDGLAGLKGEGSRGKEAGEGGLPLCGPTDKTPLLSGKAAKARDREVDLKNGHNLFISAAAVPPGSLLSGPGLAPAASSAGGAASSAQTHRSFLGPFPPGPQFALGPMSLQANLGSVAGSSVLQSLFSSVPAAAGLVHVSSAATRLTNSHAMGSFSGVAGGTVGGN", "test": "DOT1L affinity", "assay_type": "binding"}, "MLL-rearranged cells": {"system": "MLL-rearranged cells", "test": "Pre-clinical study with MLL-rearranged and non-MLL rearranged cells (FIG. 3)", "assay_type": "cell-based", "conditions": "MLL-rearranged vs non-MLL rearranged cells"}, "[1]": {"test": "Pediatric Phase 1 study: pharmacokinetics", "assay_type": "in vivo, human", "protocol": "(§1) An open label dose escalation study of pinometostat was performed in patients (pts) aged 3 months to 18 […] leukemia (NCT02141828). Pinometostat was administered via continuous intravenous infusion until disease progression or unacceptable toxicity. Patients were assigned to one of two age-based dose escalation […] developed from simulations of pediatric exposures using a previously reported physiologically-based PK (PBPK) model (Waters, 2014). All patients underwent serial collection of PK and peripheral blood mononuclear cells (PBMC) for PD. Leukemic blasts were isolated from PBMCs using flow cytometry and quantified for di-methylation of H3K79 (H3K79-me2) by ChIP-Seq."}, "[2]": {"system": "14 cell lines (MLL-r or MLL-PTD)", "test": "Cell proliferation in 14 cell lines", "assay_type": "cell-based", "protocol": "RNA and DNA were isolated from PBMCs and/or bone marrow collected prior to treatment from 18 patients enrolled in the adult pinometostat Phase 1 study (CT.gov: NCT01684150), at the following doses 24 (n=2), 36 (n=3), 54 (n=6), 80 (n=3) and 90 mg/m^2/day doses (n=4). mRNA transcript abundance was assessed using whole genome RNASeq and DNA variants were determined using a 194 gene panel, MyAML (Genection Inc.). Correlations of transcript abundance and DNA variants detected with categorical (responder=CR or PR [n=3], or no response [n=15]) and continuous response parameters (time on study (“TOS”), mean=59 days: range=8-196 days) were performed. For cell lines, whole genome RNASeq data was generated from 14 cell lines (MLL-r or MLL-PTD) with a range of in vitro sensitivity to pinometostat (cell proliferation IC50 2 nM to >10 μM) and RNA transcripts identified as correlated with IC5o were submitted for pathway analysis."}, "[3]": {"test": "Adult Phase 1 study: pharmacokinetics", "assay_type": "in vivo, human", "conditions": "adults, CIV", "protocol": "(§2) This open label dose escalation/expansion study of pinometostat enrolled patients ≥18 years (yrs) with R/R leukemia (NCT01684150). In the dose-escalation phase, patients with AML, ALL, mixed lineage leukemia (MLL), myelodysplastic syndrome, myeloproliferative neoplasm or chronic myeloid leukemia were eligible. Eligibility in the two expansion cohorts: 90 mg/m^2 (n=17) and 54 mg/m^2 (n=6), was restricted to patients with MLL-r or MLL-partial tandem duplication (MLL-PTD). Pinometostat was given via continuous intravenous infusion (CIV) for 21 of 28 day cycles in the dose escalation phase and CIV for 28 of 28 day cycles in the expansion phase, until disease progression or unacceptable toxicity. All patients underwent serial collection of PK and peripheral blood mononuclear cells (PBMC) for PD. Leukemic blasts were isolated from PBMCs using flow cytometry and quantified for dimethylation of H3K79 (H3K79-me2) by ChIP-Seq."}, "[4]": {"test": "Adult Phase 1 dose escalation/expansion study: safety and clinical response", "assay_type": "in vivo, human", "design": "key to clinical response, per patient: ▪: Complete Responder (Patient Nos. 16 and 18); ▴: Biological Effect (Leukocytosis) (Patient Nos. 1, 7, 13, 15, and 17); ●: Non-responder (Patient Nos. 2-6, 8-12, and 14)", "text": "This open label dose escalation/expansion study of pinometostat enrolled patients ≥18 years (yrs) with R/R leukemia (NCT01684150). In the dose-escalation phase, patients with AML, ALL, mixed lineage leukemia (MLL), myelodysplastic syndrome, myeloproliferative neoplasm or chronic myeloid leukemia were eligible. […] Pinometostat was given via continuous intravenous infusion (CIV) for 21 of 28 day cycles in the dose escalation phase and CIV for 28 of 28 day cycles in the expansion phase, until disease progression or unacceptable toxicity. All patients underwent serial collection of PK and peripheral blood mononuclear cells (PBMC) for PD. […] As of Jun. 28, 2015, 49 patients have enrolled in the dose escalation and expansion phases. […] Correlations of transcript abundance and DNA variants detected with categorical (responder=CR or PR [n=3], or no response [n=15]) and continuous response parameters (time on study (“TOS”), mean=59 days: range=8-196 days) were performed."}, "[5]": {"system": "H3K79-me2 at MLL-r target genes HOXA9 and MEIS1", "test": "Adult Phase 1 study: H3K79-me2 ChIP-Seq in leukemic blasts", "assay_type": "in vivo, human", "conditions": "9 patients, 90 mg/m^2 expansion cohort", "protocol": "as §2"}, "[6]": {"system": "MLL-rearranged cells and xenografts", "conditions": "cited from earlier work"}, "[7]": {"system": "leukemia cell lines MOLM-13, OCI-AML4, and SKM-1", "test": "Growth inhibition assays, pinometostat with RAS pathway inhibitors", "assay_type": "cell-based", "conditions": "pinometostat 3 μM, 300 nM, 150 nM or 75 nM plus SCH772984, Trametinib or Sorafenib; FIG. 13", "protocol": "Growth inhibition assays were performed using leukemia cell lines to determine whether there is any synergy between pinometostat and RAS pathway inhibitors. The leukemia cell lines used were MOLM-13, OCI-AML4, and SKM-1. For these studies, different RAS pathway inhibitors were used, including SCH772984 (e.g., an ERK inhibitor), Trametinib (e.g., a MEK inhibitor), and Sorafenib (e.g., a Raf kinase inhibitor)."}, "[8]": {"system": "H3K79-me2 at MLL-r target genes HOXA9 and MEIS1", "test": "Pediatric Phase 1 study: H3K79-me2 ChIP-Seq in leukemic blasts", "assay_type": "in vivo, human", "conditions": "2 of 2 pediatric patients analyzed", "protocol": "as §1"}, "[9]": {"conditions": "Stein 2014 ASH abstract 387; cited from earlier work"}, "[10]": {"test": "Pediatric Phase 1 study: safety", "assay_type": "in vivo, human", "conditions": "children with R/R leukemia", "protocol": "as §1, with “ChIP-Seq. As of Jun. 28, 2015, 11 patients have enrolled in the dose escalation of the study consisting of 10 patients (6 patients at 70 mg/m^2/day, 4 patients at 90 mg/m^2/day) in the older age cohort (1 to 18 yr) and 1 patient (45 mg/m^2/day) in the younger age cohort (<1 yr).” for “ChIP-Seq.”"}, "[11]": {"conditions": "18 adult patients of biomarker analysis"}, "[12]": {"conditions": "dose level 24 mg/m^2, listed as pinometostat"}, "[13]": {"conditions": "dose level 36 mg/m^2, listed as pinometostat"}, "[14]": {"conditions": "dose level 54 mg/m^2, listed as pinometostat"}, "[15]": {"conditions": "dose level 90 mg/m^2, listed as pinometostat"}},
  "note": "Where “and” joins values, the source holds several entries; their conditions need not be identical. Equal entries are not always repeated. Entries after “also recorded” stand apart in the source; their conditions may differ. Where two headings read alike, the source gives them in different places.",
  "data": [
    {"smiles": "CC(C)N(C[C@H]1O[C@@H](n2cnc3c(N)ncnc32)[C@H](O)[C@@H]1O)[C@H]1C[C@@H](CCc2nc3cc(C(C)(C)C)ccc3[nH]2)C1", "note": "[Compound A2, (2R,3R,4S,5R)-2-(6-amino-9H-purin-9-yl)-5-((((1r,3S)-3-(2-(5-(tert-butyl)-1H-benzo[d]imidazol-2yl)ethyl)cyclobutyl)(isopropyl)amino)methyl)tetrahydrofuran-3,4-diol]", "values": [
      {"measurement": "affinity for DOT1L", "setting": "DOT1L", "value": "sub-nanomolar"},
      {"measurement": "killing of genetically defined cancer cells", "setting": "MLL-rearranged cells", "value": "selective killing"},
      {"measurement": "Steady-state CSF concentrations", "setting": "[1]; children", "value": "< 2", "unit": "ng/mL"},
      {"measurement": "Steady-state plasma concentrations (Css)", "setting": "[1]; children ≥1 yr, 70 and 90 mg/m^2 doses", "value": "800 to 1600", "unit": "ng/mL"},
      {"measurement": "IC50", "setting": "[2]; least sensitive of 14 cell lines, read-out: cell proliferation IC50, upper end of range", "value": "> 10000", "unit": "nM"},
      {"measurement": "IC50", "setting": "[2]; most sensitive of 14 cell lines, read-out: cell proliferation IC50, lower end of range", "value": 2, "unit": "nM"},
      {"measurement": "attainment of steady-state plasma concentrations (Css)", "setting": "[3]", "value": "Day 1"},
      {"measurement": "dose proportionality of PK", "setting": "[3]", "value": "Dose proportional PK"},
      {"measurement": "time on study (TOS), mean", "setting": "[4]; [11]", "value": 59, "unit": "days"},
      {"measurement": "time on study (TOS), range", "setting": "[4]; [11]", "value": "8 to 196", "unit": "days"},
      {"measurement": "safety profile", "setting": "[4]; CIV, adults with R/R leukemia", "value": "acceptable safety profile"},
      {"measurement": "differentiation effect in patients with MLL-r", "setting": "[4]; FIG. 8, micrographs of blood and bone marrow", "value": "leads to a differentiation effect"},
      {"measurement": "drug-related treatment discontinuations", "setting": "[4]; adult MLL-r and MLL-PTD, 90 mg/m^2/day uninterrupted, expansion stage", "value": "no drug-related treatment discontinuations"},
      {"measurement": "objective response: PR", "setting": "[4]; adults, 49 patients", "value": 1, "unit": "pt"},
      {"measurement": "objective response: cytogenetic CR (MLL negative by FISH)", "setting": "[4]; adults, 49 patients", "value": 1, "unit": "pt"},
      {"measurement": "objective response: morphologic CR", "setting": "[4]; adults, 49 patients", "value": 1, "unit": "pt"},
      {"measurement": "resolution of leukemia cutis", "setting": "[4]; adults, 49 patients", "value": 3, "unit": "pts"},
      {"measurement": "patients with leukocytosis or differentiation", "setting": "[4]; adults, absolute monocyte and neutrophil 50% above baseline and above upper limit of normal", "value": "Nine"},
      {"measurement": "Time on Study, per patient", "setting": "[4]; [12]", "value": "49 days and 8 days"},
      {"measurement": "clinical response, per patient", "setting": "[4]; [12]", "value": "● and ▴"},
      {"measurement": "Time on Study, per patient", "setting": "[4]; [13]", "value": "33 days and 65 days and 21 days"},
      {"measurement": "clinical response, per patient", "setting": "[4]; [13]", "value": "▴ (2×) and ●"},
      {"measurement": "Time on Study, per patient", "setting": "[4]; [14]", "value": "49 days and 110 days and 196 days and 21 days"},
      {"measurement": "clinical response, per patient", "setting": "[4]; [14]", "value": "● (2×) and ▪ (2×)"},
      {"measurement": "clinical response, per patient", "setting": "[4]; dose level 80 mg/m^2", "value": "●"},
      {"measurement": "Time on Study, per patient", "setting": "[4]; dose level 80 mg/m^2, listed as pinometostat", "value": "41 days and 82 days"},
      {"measurement": "Time on Study, per patient", "setting": "[4]; [15]", "value": "31 days and 38 days and 50 days and 86 days and 136 days and 15 days and 28 days"},
      {"measurement": "clinical response, per patient", "setting": "[4]; [15]", "value": "● (5×) and ▴ (2×)"},
      {"measurement": "median inhibition of H3K79-me2 methylation at HOXA9 and MEIS1", "setting": "[5]", "value": 61, "unit": "%"},
      {"measurement": "range of inhibition of H3K79-me2 methylation at HOXA9 and MEIS1", "setting": "[5]", "value": "13- 91%"},
      {"measurement": "MLL target gene expression", "setting": "[6]", "value": "decreased"},
      {"measurement": "histone H3K79 methylation", "setting": "[6]", "value": "reduced"},
      {"measurement": "leukemia cell kill", "setting": "[6]; listed as Pinometostat", "value": "induced selective leukemia cell kill"},
      {"measurement": "leukemia cell kill", "setting": "[6]; listed as pinometostat", "value": "selective leukemia cell kill"},
      {"measurement": "effect on inhibition of cell growth, combination of RAS pathway inhibitor and pinometostat", "setting": "[7]", "value": "synergistic effect; also recorded: synergistic cell killing"},
      {"measurement": "range of inhibition of H3K79-me2 methylation at HOXA9 and MEIS1", "setting": "[8]", "value": "44-72%"},
      {"measurement": "clinical activity, preliminary results of the adult trial", "setting": "[9]", "value": "complete remissions in a subset of patients"},
      {"measurement": "safety profile", "setting": "[10]", "value": "acceptable safety profile"}
    ]},
    {"smiles": "O=C(Nc1ccc2[nH]nc(-c3ccncc3)c2c1)[C@@H]1CCN(CC(=O)N2CCN(c3ccc(-c4ncccn4)cc3)CC2)C1", "note": "[SCH772984, reference compound]", "values": [
      {"measurement": "effect on inhibition of cell growth, combination of RAS pathway inhibitor and pinometostat", "setting": "[7]", "value": "synergistic effect"}
    ]},
    {"smiles": "CNC(=O)c1cc(Oc2ccc(NC(=O)Nc3ccc(Cl)c(C(F)(F)F)c3)cc2)ccn1", "note": "[Sorafenib, reference compound]", "values": [
      {"measurement": "effect on inhibition of cell growth, combination of RAS pathway inhibitor and pinometostat", "setting": "[7]", "value": "synergistic effect"}
    ]}
  ]
}
